Assay results: paper PMC6273491, “Two New Oleanane-Type Saponins with Anti-Proliferative Activity from Camellia oleifera Abel. Seed Cake” (Molecules, 2016)

Tests used:
Type in all cases: cell-based
[1] = test system: human oral epidermoid carcinoma cells KB; experiment: MTT anti-proliferative assay, KB; conditions: 72 h treatment, read-out: Cell Lines IC50 KB
Method: (§1) The isolated Compounds 1, 2 and total seed cake saponins (C. oleifera) were tested against five human tumor cell lines (human hepatocellular carcinoma cells BEL-7402, human gastric carcinoma cells BGC-823, human breast cancer cells MCF-7, human promyelocytic leukemia cells HL-60 and human oral epidermoid carcinoma cells KB) using the MTT in vitro assay. Taxol, an anticancer agent, was used as the positive control.
(§2) The procedure for the anti-proliferative activity assay was performed according to the MTT reduction method using the human tumor cell lines BEL-7402, BGC-823, MCF-7, HL-60 and KB (Nanjing KeyGEN BioTECH Co., LTD, Jiangsu, China). In brief, the human tumor cell lines in culture medium (100 μL) were placed in a cell of a 96-well plate at a concentration of 4 × 10^3 cells/mL and incubated at 37 °C in 5% CO2 for 24 h. After 24 h, an additional 100 μL of complete medium with either: no additions (negative control), 0.1% DMSO (solvent control), 10 μg/mL Taxol (positive control), or different concentrations (0.391, 0.781, 1.562, 3.125, 6.25, 12.5, 25 and 50 μM) of 1 or 2 or total saponins (0.391, 0.781, 1.562, 3.125, 6.25, 12.5, 25 and 50 μg/mL). The treated cells were incubated as above for 72 h. […] The optical density (OD) of each well was measured at 490 nm using a Tunable Microplate Reader (EL-x800, BioTek Instruments, Winooski, VT, USA). […]

[2] = test system: human gastric carcinoma cells BGC-823; experiment: MTT anti-proliferative assay, BGC-823; conditions: 72 h treatment, read-out: Cell Lines IC50 BGC-823
Method: as §1, §2

[3] = test system: five human tumor cell lines (BEL-7402, BGC-823, MCF-7, HL-60 and KB); experiment: MTT anti-proliferative assay, panel of five human tumor cell lines; conditions: 72 h treatment, range across BEL-7402, BGC-823, MCF-7, HL-60, KB, read-out: anti-proliferative activity IC50 values, range over five cell lines
Method: as §1, §2

[4] = test system: human breast cancer cells MCF-7; experiment: MTT anti-proliferative assay, MCF-7; conditions: MCF7, 72 h treatment, read-out: Cell Lines IC50 MCF-7
Method: as §1, §2

[5] = test system: human promyelocytic leukemia cells HL-60; experiment: MTT anti-proliferative assay, HL-60; conditions: 72 h treatment, read-out: Cell Lines IC50 HL-60
Method: as §1, §2

[6] = test system: human hepatocellular carcinoma cells BEL-7402; experiment: MTT anti-proliferative assay, BEL-7402; conditions: 72 h treatment, read-out: Cell Lines IC50 BEL-7402
Method: as §1, §2

Structure (SMILES): CC=C(C)C(=O)OC1CC(C)(C)CC2C3=CCC4C5(C)CCC(OC6OC(C(=O)OC)C(O)C(OC7OC(CO)C(O)C(O)C7OC7OC(CO)C(O)C(O)C7O)C6OC6OC(CO)C(O)C(O)C6O)C(C)(C=O)C5CCC4(C)C3(C)CC(O)C12CO [Compound 1, 16α-hydroxy-22α-O-angeloyl-23α-aldehyde-28-dihydroxymethylene-olean-12-ene-3β-O-[β-D-galacto-pyranosyl-(1→2)]-[β-D-glucopyranosyl-(1→2)-β-D-galactopyranosy-(1→3)]-β-D-glucopyranosid-uronic acid methyl ester]
- IC50 [1]: 12.3 µM
- IC50 [2]: 11.2 µM
- IC50 [3]: 6.5 to 15.1 µM
- IC50 [4]: 15.1 µM
- IC50 [5]: 6.49 µM
- IC50 [6]: 10.4 µM

Structure (SMILES): CC=C(C)C(=O)OC1CC(C)(C)CC2C3=CCC4C5(C)CCC(OC6OC(C(=O)OC)C(O)C(OC7OC(CO)C(O)C(O)C7O)C6OC6OC(CO)C(O)C(O)C6O)C(C)(C=O)C5CCC4(C)C3(C)CC(O)C12CO [Compound 2, 16α-hydroxy-22α-O-angeloyl-23α-aldehyde-28-dihydroxymethylene-olean-12-ene-3β-O-[β-D-galactopyranosyl-(1→2)]-[β-D-galactopyranosyl-(1→3)]-β-D-glucopyranosiduronic acid methyl ester]
- IC50 [1]: 3.47 µM
- IC50 [2]: 5.5 µM
- IC50 [3]: 1.8 to 5.5 µM
- IC50 [4]: 3.92 µM
- IC50 [5]: 1.8 µM
- IC50 [6]: 4.22 µM
